Entries after “also recorded” stand apart in the source; their conditions may differ.
Key:
[1] = tested on: spontaneously hypertensive rats; conditions: tripeptides from fermented milk (Nakamura et al. 1995); cited from earlier work
ACE [2] = experiment: modified Matsui ACE inhibition assay (Hip-His-Leu, TNBS); assay type: biochemical
Procedure: To determine the ACE inhibition activity of MAP and ITP, the chemically synthesised tripeptides were assayed according to the method of Matsui et al. (Matsui, T. et al. (1992) Biosci. Biotech. Biochem. 56: 517-518) with some minor modifications.
Each one of the four samples contained 75 μl 3 mM hippuryl histidine leucine (Hip-His-Leu, Sigma Chemicals) dissolved in a 250 mM borate solution containing 200 mM NaCl, pH 8.3. ACE was obtained from Sigma Chemicals. The mixtures were incubated at 37° C. and stopped after 30 min by adding 125 μl 0.5 M HCl. Subsequently, 225 μl bicine/NaOH solution (1 M NaOH: 0.25 M bicine (4:6)) was added, followed by 25 μl 0.1 M TNBS (2,4,6-Trinitrobenzenesulfonic acid, Fluka, Switzerland; in 0.1 M Na2HPO4). After incubation for 20 min. at 37° C., 4 ml 4 mM Na2SO3 in 0.2 M NaH2PO4 was added and the light absorbance at 416 nm was measured with UV/Vis spectrophotometer (Shimadzu UV-1601 with a CPS controller, Netherlands).
The amount of ACE inhibition (ACEI) activity was calculated as a percentage of inhibition compared with the conversion rate of ACE in the absence of an inhibitor according to the following formula:
ACEI (%)=((Control 1−Control 2)−(Sample 1−Sample 2))/(Control 1−Control 2))*100
wherein • Control 1=Absorbance without ACE inhibitory component (=max. ACE activity) [AU]. • Control 2=Absorbance without ACE inhibitory component and without ACE (background) [AU]. • Sample 1=Absorbance in the presence of ACE and the ACE inhibitory component [AU]. • Sample 2=Absorbance in the presence of the ACE inhibitory component, but without ACE [AU].

ACE [3] = experiment: at-line ACE inhibition assay (HHL substrate, HPLC read-out); assay type: biochemical; conditions: at-line measurements used in the screening phase
From the text: The presence of novel ACE inhibiting peptides in CDBAP was investigated by using 2-dimensional-chromatographic-separation combined with an at-line ACE inhibition assay and mass spectrometry for identification. In the first analysis the peptide mixture was separated on an ODS3 liquid chromatography (LC) column and ACE inhibition profiles were generated from the various fractions obtained. In a second analysis the fractions from the first column showing a high ACE inhibition were further separated on a Biosuite LC column using a different gradient profile. The fractions collected from this second column were split into two parts: one part was used for the at-line ACE inhibition measurement while the other part was subjected to MS and MS-MS analysis to identify the peptides present. […]
The 96 well plate was then analysed on a flash-HPLC-column. […] Hippuric acid (H) and HHL were monitored at 280 nm. The peak heights of H and HHL were measured and the ACE inhibition (ACEI) of each fraction was calculated according to the equation:
[formula] • ACEIα Percentage inhibition of the analyte • Dcw Degree of Cleavage by ACE of HHL to H and HL in water • Dca Degree of Cleavage of HHL to H and HL for the analyte The Degree of Cleavage was calculated by expressing the peak height of H as a fraction of the sum of the peak heights of H and HHL.

ACE [4] = target: ACE (Homo sapiens, UniProt P12821); conditions: cited from earlier work; for IC50: Nakamura et al. 1995, Aryoshi 1993, read-out: IC50 values reported earlier for ACE inhibiting peptides; for ACE inhibiting activities reported: in vitro, prior art
[5] = gastrointestinal treatment (GIT) simulating digestion with pepsin and pancreatin; assay type: in vitro ADME, human
Procedure: After consumption, dietary proteins and peptides are exposed to various digestive enzymatic processes in the gastrointestinal tract. In order to assess the stability of the newly identified bioactive peptides in the human gastrointestinal tract, the CDBAP preparation (prepared as described in Example 7) was subjected to a gastrointestinal treatment (GIT) simulating the digestive conditions typically found in the human body. Samples obtained after various incubation times in the GIT model system were analysed using the on-line HPLC-Bioassay-MS or HRS-MS system to quantify any residual MAP and ITP peptides. The GIT procedure was performed in a standardized mixing device incorporating a 100 ml flask (as supplied by Vankel, US). The temperature of the water bath was set to 37.5° C. and the paddle speed was chosen such that the sample was kept in suspension (100 rpm).
About 3.4 grams of CDBAP (protein level of approx 60%) was dissolved/suspended in 100 ml Milli-Q water. During gastric simulation 5 M HCl was used to decrease the pH. At the end of gastric simulation and during the duodenal phase 5 M NaOH was used to raise the pH.
The CDBAP suspension was preheated to 37.5° C. and 5 ml of the suspension was removed to dissolve 0.31 g of pepsin (Fluka order no. 77161). At t=0 min the 5 ml with the now dissolved pepsin was added back to the suspension. Then the pH of the CDBAP suspension was adjusted slowly by hand using a separate pH meter according to the following scheme:
t=20 min pH decreased to 3.5 t=40 min pH to 3.0 t=50 min pH to 2.3 t=60 min pH to 1.8 t=65 min pH raised to 2.7 t=75 min pH to 3.7 t=80 min pH to 5.3 […]
Then the samples were transferred into a beaker and were placed in a microwave till boiling. […] The total N concentration of the powder as obtained was determined and converted to protein level using the Kjeldahl factor of casein (6.38). […] The levels of MAP and ITP surviving the proteolytic treatment according to the GIT procedure were determined as described in Example 7 and the data obtained are shown in Table 10.

[6] = as restated in the description, read-out: IC50 value in the Modified Matsui test

Sequence of ACE (Homo sapiens, UniProt P12821) (P12821 30-1306, species assumed): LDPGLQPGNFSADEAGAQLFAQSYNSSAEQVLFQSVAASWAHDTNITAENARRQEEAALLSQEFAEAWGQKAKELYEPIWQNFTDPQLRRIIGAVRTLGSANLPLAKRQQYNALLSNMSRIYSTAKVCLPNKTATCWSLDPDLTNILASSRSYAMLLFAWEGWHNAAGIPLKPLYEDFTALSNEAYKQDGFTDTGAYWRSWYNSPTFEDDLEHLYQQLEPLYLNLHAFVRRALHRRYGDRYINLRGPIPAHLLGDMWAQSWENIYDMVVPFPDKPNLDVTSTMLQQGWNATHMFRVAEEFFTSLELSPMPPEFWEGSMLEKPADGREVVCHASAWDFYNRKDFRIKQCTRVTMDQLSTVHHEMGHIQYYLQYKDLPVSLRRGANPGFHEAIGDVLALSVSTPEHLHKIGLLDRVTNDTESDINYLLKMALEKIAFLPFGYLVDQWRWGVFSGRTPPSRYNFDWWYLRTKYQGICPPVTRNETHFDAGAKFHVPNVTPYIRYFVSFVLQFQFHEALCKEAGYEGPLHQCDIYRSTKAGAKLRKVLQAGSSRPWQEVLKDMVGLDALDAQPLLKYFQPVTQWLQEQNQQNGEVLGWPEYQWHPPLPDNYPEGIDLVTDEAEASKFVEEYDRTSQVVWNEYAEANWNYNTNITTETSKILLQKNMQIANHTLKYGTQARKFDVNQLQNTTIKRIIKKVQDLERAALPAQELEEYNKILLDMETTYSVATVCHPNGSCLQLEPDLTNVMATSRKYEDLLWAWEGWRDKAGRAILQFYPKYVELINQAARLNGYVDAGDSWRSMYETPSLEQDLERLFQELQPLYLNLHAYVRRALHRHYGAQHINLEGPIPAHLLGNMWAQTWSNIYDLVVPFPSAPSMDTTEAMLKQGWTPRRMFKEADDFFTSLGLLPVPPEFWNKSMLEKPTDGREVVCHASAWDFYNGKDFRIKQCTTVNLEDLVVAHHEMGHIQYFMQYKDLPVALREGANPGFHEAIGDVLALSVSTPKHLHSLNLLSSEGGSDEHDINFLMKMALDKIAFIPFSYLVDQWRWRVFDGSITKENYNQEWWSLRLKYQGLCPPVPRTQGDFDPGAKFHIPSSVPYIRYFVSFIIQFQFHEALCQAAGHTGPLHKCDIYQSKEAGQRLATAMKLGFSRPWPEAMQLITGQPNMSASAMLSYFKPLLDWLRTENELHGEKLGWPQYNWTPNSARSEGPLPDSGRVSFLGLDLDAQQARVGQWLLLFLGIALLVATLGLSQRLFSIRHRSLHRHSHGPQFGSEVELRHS

Substance	antihypertensive effects [1]	IC50 (ACE [2]; [6]) [µM]	IC50 (ACE [3]) [µM]	IC50 (ACE [4]) [µM]	ACE inhibiting activities reported (ACE [4])	IC50 (ACE [2]; chemically synthesized tripeptides, read-out: IC50 value, Modified Matsui assay) [µM]	Concentration of tripeptide in CDBAP before GIT procedure ([5]; CDBAP (Example 7), before passage) [μg g^−1 powder]	Concentration of tripeptide in CDBAP after GIT procedure ([5]; CDBAP after GIT, pepsin then pancreatin, 125 min, 37.5° C.) [μg g^−1 powder]	resistance against GIT digestion ([5]; simulated gastro-intestinal digestion)
Ile-Pro-Pro (IPP)	confirmed	2	7.1	5	Strong ACE inhibiting activities	–	–	–	–
Ile-Thr-Pro (ITP)	–	10	50	–	–	10	903.7	889.1	high resistance; also recorded: resist gastrointestinal proteolytic degradation; also recorded: survive
Leu-Pro-Pro [LPP]	–	–	–	9.6	Strong ACE inhibiting activities	–	–	–	–
Val-Pro-Pro [VPP]	confirmed	–	–	–	Strong ACE inhibiting activities	–	–	–	–
